Results taken from the NIST ThermoML archive (doi:10.1021/je7004374).
Numbers after ± are expanded uncertainties.

Assays:
[1] = Liquid
[2] = refractive index (Na D-line) (dimensionless); details: 298.15 K; 101.33 kPa; Liquid; Standard Abbe refractometry

CC(O)CO (centres undefined) [1,2-propanediol]
[1]
Details | mass density [kg/m3]
283.16 K, 101.33 kPa | 1043.43 ± 0.26
288.15 K, 101.33 kPa | 1039.84 ± 0.25
293.15 K, 100 kPa | 1036.22 ± 0.25
293.15 K, 10000 kPa | 1040.95 ± 0.31
293.15 K, 20000 kPa | 1045.52 ± 0.4
293.15 K, 30000 kPa | 1049.89 ± 0.49
293.15 K, 40000 kPa | 1054.08 ± 0.6
293.15 K, 50000 kPa | 1058.13 ± 0.72
293.15 K, 60000 kPa | 1062.03 ± 0.86
293.15 K, 70000 kPa | 1065.8 ± 1
293.15 K, 80000 kPa | 1069.46 ± 1.1
293.15 K, 90000 kPa | 1073.01 ± 1.3
293.15 K, 100000 kPa | 1076.45 ± 1.5
293.16 K, 101.33 kPa | 1036.21 ± 0.25
298.15 K, 100 kPa | 1032.55 ± 0.24
298.15 K, 10000 kPa | 1037.38 ± 0.3
298.15 K, 20000 kPa | 1042.03 ± 0.38
298.15 K, 30000 kPa | 1046.08 ± 0.47
298.15 K, 40000 kPa | 1050.75 ± 0.58
298.15 K, 50000 kPa | 1054.86 ± 0.69
298.15 K, 60000 kPa | 1058.82 ± 0.82
298.15 K, 70000 kPa | 1062.66 ± 0.96
298.15 K, 80000 kPa | 1066.37 ± 1.1
298.15 K, 90000 kPa | 1069.96 ± 1.3
298.15 K, 100000 kPa | 1073.46 ± 1.4
298.16 K, 101.33 kPa | 1032.54 ± 0.24
303.15 K, 100 kPa | 1028.84 ± 0.24
303.15 K, 10000 kPa | 1033.77 ± 0.29
303.15 K, 20000 kPa | 1038.51 ± 0.36
303.15 K, 30000 kPa | 1043.04 ± 0.45
303.15 K, 40000 kPa | 1047.38 ± 0.55
303.15 K, 50000 kPa | 1051.56 ± 0.66
303.15 K, 60000 kPa | 1055.59 ± 0.79
303.15 K, 70000 kPa | 1059.48 ± 0.92
303.15 K, 80000 kPa | 1063.24 ± 1.1
303.15 K, 90000 kPa | 1066.89 ± 1.2
303.15 K, 100000 kPa | 1070.44 ± 1.4
303.16 K, 101.33 kPa | 1028.83 ± 0.24
308.15 K, 100 kPa | 1025.1 ± 0.2
308.15 K, 101.33 kPa | 1025.09 ± 0.23
308.15 K, 10000 kPa | 1030.12 ± 0.28
308.15 K, 20000 kPa | 1034.95 ± 0.35
308.15 K, 30000 kPa | 1039.56 ± 0.43
308.15 K, 40000 kPa | 1043.98 ± 0.52
308.15 K, 50000 kPa | 1048.23 ± 0.63
308.15 K, 60000 kPa | 1052.32 ± 0.75
308.15 K, 70000 kPa | 1056.27 ± 0.88
308.15 K, 80000 kPa | 1060.1 ± 1
308.15 K, 90000 kPa | 1063.8 ± 1.2
308.15 K, 100000 kPa | 1067.39 ± 1.3
313.15 K, 100 kPa | 1021.31 ± 0.23
313.15 K, 101.33 kPa | 1021.3 ± 0.23
313.15 K, 10000 kPa | 1026.44 ± 0.27
313.15 K, 20000 kPa | 1031.36 ± 0.33
313.15 K, 30000 kPa | 1036.06 ± 0.41
313.15 K, 40000 kPa | 1040.55 ± 0.5
313.15 K, 50000 kPa | 1044.87 ± 0.6
313.15 K, 60000 kPa | 1049.03 ± 0.72
313.15 K, 70000 kPa | 1053.04 ± 0.84
313.15 K, 80000 kPa | 1056.92 ± 0.98
313.15 K, 90000 kPa | 1060.68 ± 1.1
313.15 K, 100000 kPa | 1064.32 ± 1.3
318.15 K, 100 kPa | 1017.48 ± 0.22
318.16 K, 101.33 kPa | 1017.48 ± 0.22
323.15 K, 101.33 kPa | 1013.61 ± 0.22
328.16 K, 101.33 kPa | 1009.71 ± 0.21
333.15 K, 101.33 kPa | 1005.76 ± 0.21
338.16 K, 101.33 kPa | 1001.77 ± 0.21
343.15 K, 101.33 kPa | 997.745 ± 0.21
348.15 K, 101.33 kPa | 993.675 ± 0.21
353.15 K, 101.33 kPa | 989.56 ± 0.22
358.15 K, 101.33 kPa | 985.405 ± 0.22
363.15 K, 101.33 kPa | 981.219 ± 0.23

[1]
Details | speed of sound [m/s]
292.87 K, 45590 kPa, Sing-around technique in a fixed-path interferometer | 1674.4 ± 2.2
292.87 K, 60790 kPa, Sing-around technique in a fixed-path interferometer | 1717.8 ± 2.3
292.87 K, 101320 kPa, Sing-around technique in a fixed-path interferometer | 1821.9 ± 2.3
292.88 K, 15200 kPa, Sing-around technique in a fixed-path interferometer | 1578.7 ± 2.2
292.88 K, 30390 kPa, Sing-around technique in a fixed-path interferometer | 1628.5 ± 2.2
292.88 K, 75990 kPa, Sing-around technique in a fixed-path interferometer | 1758.5 ± 2.3
292.88 K, 91180 kPa, Sing-around technique in a fixed-path interferometer | 1797.3 ± 2.3
292.92 K, 100 kPa, Sing-around technique in a fixed-path interferometer | 1523.1 ± 1.5
293.15 K, 101.33 kPa, Pulse-echo method | 1522.4 ± 1.5
298.15 K, 101.33 kPa, Pulse-echo method | 1508.4 ± 1.5
298.15 K, 45590 kPa, Sing-around technique in a fixed-path interferometer | 1661.6 ± 2.2
298.15 K, 60790 kPa, Sing-around technique in a fixed-path interferometer | 1705.2 ± 2.3
298.15 K, 75990 kPa, Sing-around technique in a fixed-path interferometer | 1746.5 ± 2.3
298.16 K, 15200 kPa, Sing-around technique in a fixed-path interferometer | 1564.2 ± 2.2
298.16 K, 30390 kPa, Sing-around technique in a fixed-path interferometer | 1615.1 ± 2.2
298.16 K, 91180 kPa, Sing-around technique in a fixed-path interferometer | 1785.6 ± 2.3
298.16 K, 101320 kPa, Sing-around technique in a fixed-path interferometer | 1810.5 ± 2.3
298.2 K, 100 kPa, Sing-around technique in a fixed-path interferometer | 1508.3 ± 1.5
303.13 K, 60790 kPa, Sing-around technique in a fixed-path interferometer | 1693.5 ± 2.3
303.13 K, 101320 kPa, Sing-around technique in a fixed-path interferometer | 1799.9 ± 2.3
303.14 K, 15200 kPa, Sing-around technique in a fixed-path interferometer | 1551 ± 2.2
303.14 K, 30390 kPa, Sing-around technique in a fixed-path interferometer | 1602.4 ± 2.2
303.14 K, 45590 kPa, Sing-around technique in a fixed-path interferometer | 1649.6 ± 2.2
303.14 K, 75990 kPa, Sing-around technique in a fixed-path interferometer | 1735.4 ± 2.3
303.14 K, 91180 kPa, Sing-around technique in a fixed-path interferometer | 1774.8 ± 2.3
303.15 K, 101.33 kPa, Pulse-echo method | 1494.3 ± 1.5
303.18 K, 100 kPa, Sing-around technique in a fixed-path interferometer | 1494.2 ± 1.5
308.12 K, 60790 kPa, Sing-around technique in a fixed-path interferometer | 1682 ± 2.3
308.12 K, 75990 kPa, Sing-around technique in a fixed-path interferometer | 1724.1 ± 2.3
308.12 K, 91180 kPa, Sing-around technique in a fixed-path interferometer | 1764 ± 2.3
308.12 K, 101320 kPa, Sing-around technique in a fixed-path interferometer | 1789.3 ± 2.3
308.13 K, 15200 kPa, Sing-around technique in a fixed-path interferometer | 1537.7 ± 2.2
308.13 K, 30390 kPa, Sing-around technique in a fixed-path interferometer | 1589.5 ± 2.2
308.13 K, 45590 kPa, Sing-around technique in a fixed-path interferometer | 1637.6 ± 2.2
308.15 K, 101.33 kPa, Pulse-echo method | 1480.2 ± 1.5
308.17 K, 100 kPa, Sing-around technique in a fixed-path interferometer | 1480.1 ± 1.5
313.15 K, 101.33 kPa, Pulse-echo method | 1466 ± 1.5
313.31 K, 15200 kPa, Sing-around technique in a fixed-path interferometer | 1524.2 ± 2.2
313.31 K, 30390 kPa, Sing-around technique in a fixed-path interferometer | 1576.4 ± 2.2
313.31 K, 45590 kPa, Sing-around technique in a fixed-path interferometer | 1625 ± 2.2
313.31 K, 60790 kPa, Sing-around technique in a fixed-path interferometer | 1669.9 ± 2.3
313.31 K, 75990 kPa, Sing-around technique in a fixed-path interferometer | 1712.6 ± 2.3
313.31 K, 91180 kPa, Sing-around technique in a fixed-path interferometer | 1752.8 ± 2.3
313.31 K, 101320 kPa, Sing-around technique in a fixed-path interferometer | 1778.5 ± 2.3
313.35 K, 100 kPa, Sing-around technique in a fixed-path interferometer | 1465.4 ± 1.5

Details | refractive index
[2] | 1.431 ± 0.0008
